In patent EP4722219A1 (Gan & Lee Pharmaceuticals Co., Ltd., priority 2023, dated 2024):
pIC50: −log10 of the molar value.

Key:
Format in all cases: cell-based
ERα [1] = target: T1, ERα (Homo sapiens, UniProt P03372); assay: ERα degradation in T-47D cells (Western blot); conditions: 4 hours
T1 sequence (P03372 1-595): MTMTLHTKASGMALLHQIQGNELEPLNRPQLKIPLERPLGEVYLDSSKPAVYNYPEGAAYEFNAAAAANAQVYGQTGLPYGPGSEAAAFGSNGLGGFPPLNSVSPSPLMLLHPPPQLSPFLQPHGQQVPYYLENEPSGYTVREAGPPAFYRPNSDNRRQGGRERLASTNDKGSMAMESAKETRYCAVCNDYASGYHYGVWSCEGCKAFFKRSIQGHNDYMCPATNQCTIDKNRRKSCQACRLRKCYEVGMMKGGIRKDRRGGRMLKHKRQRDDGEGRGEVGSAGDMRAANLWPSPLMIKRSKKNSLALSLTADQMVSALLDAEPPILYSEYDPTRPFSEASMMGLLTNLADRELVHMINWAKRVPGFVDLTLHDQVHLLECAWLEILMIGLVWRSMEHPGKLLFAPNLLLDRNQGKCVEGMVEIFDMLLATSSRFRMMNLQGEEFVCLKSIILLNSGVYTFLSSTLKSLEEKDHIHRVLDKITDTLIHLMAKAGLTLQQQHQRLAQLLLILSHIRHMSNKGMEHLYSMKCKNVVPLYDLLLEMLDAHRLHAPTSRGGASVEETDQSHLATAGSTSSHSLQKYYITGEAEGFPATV
Method in brief: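 ERα was quantified by immunoblot of RIPA lysates (20 µg total protein), normalised to an internal reference band, and degradation was expressed against control. Lysates came from T-47D cells plated at 3×10^5 cells/well and dosed 4 hours at 37°C with compound at 0.15-1000 nM final concentration.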

MCF-7 cells = assay: Inhibition of cell proliferation in MCF-7 cells (CCK-8); conditions: Homo sapiens, MCF7, 144 h, MCF-7 cell proliferation, 6 days treatment
Method in brief: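 IC50 from CCK-8 viability-based inhibition after 6-day treatment of MCF-7 cells (800 cells/well, 10% FBS DMEM, 37 °C, 5% CO2) with serially varied compound concentrations.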

T-47D cells = assay: Inhibition of cell proliferation in T-47D cells (CCK-8); conditions: Homo sapiens, T47D, 144 h, 6 days treatment, CCK-8 cell viability
Method in brief: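 Viability by CCK-8 after a 6-day, 37 °C/5% CO2 exposure of T-47D cells (3,000/well, RPMI-1640 + 10% FBS) to graded PROTAC concentrations. Inhibition rates gave the IC50.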

ERα [2] = target: T1, ERα; assay: ERα degradation in MCF-7 cells (Western blot); parameters: host or cells: MCF-7; conditions: 4 hours
Method in brief: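 ERα degradation was quantified by immunoblot densitometry, ERα signal divided by internal-reference signal and compared with control. Compounds were applied to MCF-7 cells for 4 hours at final concentrations of 0.15–1000 nM, with 20 µg total protein loaded per lane.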

Row | SMILES | Degradation rate of ERα in T-47D cells (%) (ERα [1]; 1nM) | Degradation rate of ERα in T-47D cells (%) (ERα [1]; 10nM) | pIC50 (MCF-7 cells) | pIC50 (T-47D cells) | Degradation rate of ERα in MCF-7 cells (%) (ERα [2]; 1nM) | Degradation rate of ERα in MCF-7 cells (%) (ERα [2]; 10nM)
1 | O=C1CCC(Nc2ccc3c(c2)COC[C@H]2CN(C[C@H]4CC[C@@H](OC5CCN(c6ccc([C@@H]7c8ccc(O)cc8CC[C@@H]7c7ccccc7)cc6)CC5)CC4)CCN32)C(=O)N1 (stereo partly drawn) [ER-P-34, 3-(((R)-3-(((1S,4S)-4-((1-(4-((1R,2S)-6-hydroxy-2-phenyl-1,2,3,4-tetrahydronaphthalen-1-yl)phenyl)piperidin-4-yl)oxy)cyclohexyl)methyl)-1,2,3,4,4a,5-hexahydro-7H-benzo[e]pyrazino[2,1-c][1,4]oxazepin-9-yl)amino)piperidine-2,6-dione] | 15% | 24% | 5.67 | 7.57 | 5% | 17%
2 | Cn1c(=O)n(C2CCC(=O)NC2=O)c2cc3c(cc21)C1(CCN(CC2CCC4(CC2)CCN(c2ccc([C@@H]5c6ccc(O)cc6CC[C@@H]5c5ccccc5)cc2)CC4)CC1)CO3 (stereo partly drawn) [ER-P-62] | 13% | 52% | 6.74 | 8.58 | 14% | 39%
3 | Cn1c(=O)n(C2CCC(=O)NC2=O)c2ccc3c(c21)C1(CCN(C(=O)[C@H]2CC[C@H](CN4CCN(c5ccc([C@@H]6c7ccc(O)cc7CC[C@@H]6c6ccccc6)cc5)CC4)CC2)CC1)CO3 (stereo partly drawn) [ER-P-7] | 44% | 77% | 6.22 | 8.76 | 22% | 62%
4 | C[C@@H]1Cc2cc(O)ccc2C(c2c(F)cc(N3CCC4(CC3)CC(N3CCC5(CC3)CCC3(CC5)COc5c3ccc3c5CN(C5CCC(=O)NC5=O)C3=O)C4)cc2F)N1CC(F)F (stereo partly drawn) [ER-P-27, 3-(1"-(7-(4-((3R)-2-(2,2-difluoroethyl)-6-hydroxy-3-methyl-1,2,3,4-tetrahydroisoquinolin-1-yl)-3,5-difluorophenyl)-7-azaspiro[3.5]nonan-2-yl)-6-oxo-6,8-dihydro-2H,7H-dispiro[furo[2,3-e]isoindole-3,1'-cyclohexane-4',4"-piperidin]-7-yl)piperidine-2,6-dione] | 20% | 53% | > 9.59 | 8.87 | 26% | 62%
5 | Cn1c(=O)n(C2CCC(=O)NC2=O)c2ccc3c(c21)OCC31CCN(C[C@H]2CC[C@@H](OC3CCN(c4ccc([C@@H]5c6ccc(O)cc6CC[C@@H]5c5ccccc5)cc4)CC3)CC2)CC1 (stereo partly drawn) [ER-P-54, 3-(1'-(((1S,4S)-4-((1-(4-((1R,2S)-6-hydroxy-2-phenyl-1,2,3,4-tetrahydronaphthalen-1-yl)phenyl)piperidin-4-yl)oxy)cyclohexyl)methyl)-1-methyl-2-oxo-1,2-dihydro-3H,7H-spiro[benzofuro[6,7-d]imidazole-6,4'-piperidin]-3-yl)piperidine-2,6-dione] | 67% | 81% | 5.99 | 9.82 | 50% | 76%
6 | Cn1c(=O)n(C2CCC(=O)NC2=O)c2cc3c(cc21)C1(CCN(C2CC4(CCN(c5ccc([C@@H]6c7ccc(O)cc7CC[C@@H]6c6ccccc6)cc5)CC4)C2)CC1)CO3 (stereo partly drawn) [ER-P-12, 3-(1'-(7-(4-((1R,2S)-6-hydroxy-2-phenyl-1,2,3,4-tetrahydronaphthalen-1-yl)phenyl)-7-azaspiro[3.5]nonan-2-yl)-1-methyl-2-oxo-1,2-dihydro-3H,6H-spiro[benzofuro[5,6-d]imidazole-7,4'-piperidin]-3-yl)piperidine-2,6-dione] | 34% | 38% | 7.60 | 8.62 | -9% | -11%
7 | O=C1CCC(N2Cc3c(ccc4c3OCC43CCC4(CCN(C5CCN(c6ccc([C@@H]7c8ccc(O)cc8CC[C@@H]7c7ccccc7)cc6)CC5)CC4)CC3)C2=O)C(=O)N1 (stereo partly drawn) [ER-P-58] | 35% | 71% | 7.89 | 8.66 | 42% | 69%
8 | CN(C(=O)CN1CCC2(CC1)CCC1(CC2)COc2c1ccc1c2CN(C2CCC(=O)NC2=O)C1=O)C1CCC2(CC1)CN(c1ccc([C@@H]3c4ccc(O)cc4CC[C@@H]3c3ccccc3)cc1)C2 (stereo partly drawn) [ER-P-20, 2-(7-(2,6-dioxohesperidin-3-yl)-6-oxo-7,8-dihydro-2H,6H-dipyrazole[furo[2,3-e]isoindole-3,1'-cyclohexane-4',4'-piperidin]-1"-yl)-N-(2-(4-((1R,2S)-6-hydroxy-2-phenyl-1,2,3,4-tetrahydronaphthalen-1-yl)phenyl)-2-azaspiro[3.5]nonan-7-yl)-N-methylacetamide] | 38% | 66% | 5.65 | 8.30 | 5% | 30%
9 | O=C1CCC(N2Cc3c(ccc4c3OCC43CCC4(CC3)CN(C(=O)C3CCN(c5ccc([C@@H]6c7ccc(O)cc7CC[C@@H]6c6ccccc6)cc5)CC3)C4)C2=O)C(=O)N1 (stereo partly drawn) [ER-P-4, 3-(1-(1-(4-(((1R,2S)-6-hydroxy-2-phenyl-1,2,3,4-tetrahydronaphthalen-1-yl)phenyl)piperidine-4-carbonyl)-6'-oxo-6',8'-dihydro-2'H,7'H-diazetidine-3,1'-cyclohexane-4',3"-furo[2,3-e]isoindol]-7'-yl)piperidine-2,6-dione] | 21% | 54% | 4.04 | 8.44 | 9% | 20%
10 | C[C@@H]1Cc2cc(O)ccc2C(c2c(F)cc(N3CCC4(CCC(N5CC6(CCC7(CC6)COc6c7ccc7c6CN(C6CCC(=O)NC6=O)C7=O)C5)CC4)CC3)cc2F)N1CC(F)F (stereo partly drawn) [ER-P-21, 3-(1-(3-(4-((3R)-2-(2,2-difluoroethyl)-6-hydroxy-3-methyl-1,2,3,4-tetrahydroisoquinolin-1-yl)-3,5-difluorophenyl)-3-azaspiro[5.5]undecan-9-yl)-6"-oxo-6",8"-dihydro-2"H,7"H-dispiro[azetidine-3,1'-cyclohexane-4',3"-furo[2,3-e]isoindol]-7"-yl)piperidine-2,6-dione] | 42% | 65% | 7.82 | 8.89 | 50% | 69%
11 | Cn1c(=O)n(C2CCC(=O)NC2=O)c2cc3c(cc21)C1(CCN(C2CCN(c4ccc([C@@H]5c6ccc(O)cc6CC[C@@H]5c5ccccc5)cc4)CC2)CC1)CO3 (stereo partly drawn) [ER-P-11, 3-(1'-(1-(4-((1R,2S)-6-hydroxy-2-phenyl-1,2,3,4-tetrahydronaphthalen-1-yl)phenyl)piperidin-4-yl)-1-methyl-2-oxo-1,2-dihydro-3H,6H-spiro[benzofuro[5,6-d]imidazole-7,4'-piperidin]-3-yl)piperidine-2,6-dione] | 12% | 12% | 5.45 | 7.68 | -18% | -33%
